Patent US10028992B2, “Methods of treating muscular dystrophy” (BOARD OF REGENTS OF THE NEVADA SYSTEM OF HIGHER EDUCATION …, priority 2012, dated 2018)

Test system: α7 integrin promoter
Assay: muscle cell-based assay: α7βgal+/− myoblasts/myotubes, LacZ reporter, β-galactosidase cleavage of FDG
Design: species or system mouse
Conditions: for AC50: Mus musculus, read-out: Fit Log AC50 (converted); for AC50 / Fit HillSlope / Fit Zero Activity [%] / Fit Curve Class / Fit Infinite Activity [%] / Fit Log AC50: Table 12; for AC50 / Fit Log AC50: log of AC50, given with negative sign, unit of AC50 not given; for Fit HillSlope: curve fit; for Fit Zero Activity [%]: fitted activity at zero concentration; for Fit Curve Class: key not given; for Score: Table 12 Compound data, concentration-response curve fit; for Fit Infinite Activity [%]: fitted activity at infinite concentration
Method: An α7 integrin null mouse was produced in which exon 1 of the gene encoding the α7 integrin was replaced by the LacZ reporter. In these mice, all the transcriptional regulatory elements of the α7 integrin promoter were retained, allowing β-galactosidase to report expression of 7 integrin. A primary myoblast cell line (designated α7βgal^+/−) isolated from 10 day old α7^+/− pups were analyzed for the ability of β-galactosidase to report α7 integrin expression. α7βgal^+/− myoblasts were differentiated and subjected to X-gal staining and western analysis (FIGS. 1A and 1B).
The activity of the α7 integrin promoter was measured by β-galactosidase cleavage of the non-fluorescent compound fluorescein di-β-D-galactopyranoside (FDG) to fluorescein. This assay was used to screen compound libraries to identify molecules that up-regulate α7 integrin expression in muscle.
Also evaluated was the effect of various isoforms of laminin and the ligand for α7β1 integrin on integrin expression. Positive hits were subjected to dose-response analysis, western analysis and a myostatin counterscreen (a negative regulator of muscle growth).

| Structure (SMILES) | AC50 [µM] | Fit HillSlope | Fit Zero Activity [%] | Fit Curve Class | Score | Fit Infinite Activity [%] | Fit Log AC50 |
| --- | --- | --- | --- | --- | --- | --- | --- |
| COc1ccc(N(CC(=O)NCCC(C)C)C(=O)c2snc(C(=O)NC3CCCCC3)c2N)c(OC)c1 [Compound 98] | 10 | 4.5045 | −0.0479 | 2.1 | 43 |  |  |
| CC1(C)CC(O)=C/C(=N\c2ccc(C(=O)O)c(O)c2)C1 [Compound 99] | 10 | 2.1211 | 0 | 2.1 | 43 |  |  |
| COC(=O)c1ccccc1NC(=O)c1cc[n+]([O-])cc1 [Compound 100] | 3.98 | 1.01 | −31.5116 | 2.1 | 43 |  |  |
| CN(C)C1(C/N=C/c2cc(Cl)cc([N+](=O)[O-])c2O)CCCCC1 [Compound 101] |  | 1.6604 | −15.8708 | 2.1 | 43 | 115.659 | −5.05 |
| CS(=O)(=O)Cc1cccc(C(=O)NN(c2ccccc2)c2ccccc2)c1 [Compound 102] | 12.6 | 4.5045 | 10.4042 | 2.1 | 43 |  |  |
| COc1ccccc1CNS(=O)(=O)c1ccc(Cl)s1 [Compound 103] | 6.31 | 1.8265 | −23.0045 | 2.1 | 43 |  |  |
| O=C(NCCc1ccccc1)C1CCC(=O)N1C1CCCC1 (stereo not shown) [Compound 104] | 10 | 3.6772 | −9.1182 | 2.1 | 43 |  |  |
| NS(=O)(=O)c1ccc(NC(=O)c2cc(-c3ccccc3O)[nH]n2)cc1 [Compound 105] | 10 | 3.5117 | 16.8467 | 2.1 | 43 |  |  |
| Fc1ccc(-c2ccnn2-c2ccccc2)cc1 [Compound 107] | 4.47 | 1.4781 | −19.2206 | 2.1 | 43 |  |  |
| O=C(Nc1cc(Br)ccc1O)C1CC(c2ccccc2Cl)=NO1 (stereo not shown) [Compound 108] | 12.6 | 4.5045 | 2.0834 | 2.1 | 43 |  |  |
| COc1ccc2oc(C[S+]([O-])c3ccccc3)c(C(=O)O)c2c1 (stereo not shown) [Compound 109] | 12.6 | 4.9549 | 7.5839 | 2.1 | 43 |  |  |
| CCCCS(=O)(=O)N1CCCC(C(=O)NCCc2ccccc2)C1 (stereo not shown) [Compound 111] | 7.08 | 1.21 | 2.2101 | 2.1 | 43 |  |  |
| O=[N+]([O-])c1ccc(Cl)cc1N/N=C/c1ccncc1 [Compound 112] |  | 3.132 | 0.1229 | 2.2 | 43 | 74.0416 | −5.25 |
| NC(=O)c1cccnc1Oc1ccc(Cl)cc1Cl [Compound 113] | 10 | 3.9295 | −5.8907 | 2.1 | 43 |  |  |
| Cc1ccc(NC(=O)C2CCCCC2C(=O)O)cc1C (stereo not shown) [Compound 114] | 11.2 | 4.5045 | −3.8223 | 2.1 | 43 |  |  |
| CCOc1ccc2oc(C(=O)OCC(=O)NC(=O)NC)c(C)c2c1 [Compound 115] | 7.08 | 1.8265 | −4.8829 | 2.2 | 43 |  |  |
| CN(C)S(=O)(=O)c1ccc(C(=O)Nc2nc3ccccc3[nH]2)cc1 [Compound 116] | 8.91 | 1.5579 | −9.8246 | 2.1 | 43 |  |  |
| NC1=Nc2cccc3cccc1c23 [Compound 117] | 7.94 | 1.6604 | −0.2202 | 2.1 | 43 |  |  |
| C/N=c1\scc(-c2ccc(OC)cc2)n1/N=C(\C)c1cccnc1 [Compound 118] | 5.01 | 1.6924 | −7.9176 | 2.2 | 43 |  |  |
